According to patent publication US7422862B2, “Methods for identifying modulators of apoptosis” (The Burnham Institute, priority 2001, dated 2008):
d = 2'-deoxy (DNA); r = 2'-OH (RNA)

How the values were obtained:
Type in all cases: cell-based
endogenous Bax protein = assay: Subcellular fractionation and immunoblot of endogenous Bax after STS; conditions: SF268 cells, Humanin knocked-down by siRNA
Procedure: (A-B) Humanin peptide prevents STS-induced Bax translocation in vivo. Cos-7 cells were first transfected with GFP-Bax plasmids. After 24 hrs, untagged wild-type or C8P mutant Humanin peptides were introduced into cells using ChariotTM reagent, and 2 h later cells were treated with 1 μM STS. After 4 h, the percentage of cells with translocated Bax was determined (mean±SD; n=3) by confocal microscopy (A) and representative photomicrographs (B). (C) Wild-type or C8P mutant Humanin peptides were introduced into Cos7 cells using ChariotTM reagent. Cytosolic (C) and mitochondria-containing (M) fractions were isolated by differential centrifugation 23 and analyzed by immunoblotting using anti-Bax (top), Hsp60 (middle) (mitochondrial marker), or Tubulin (bottom) (cytosol marker) antibodies. (D) HN or mutant control double-strand siRNAs were transfected into SF268 cells. After 48 h, cells were cultured without (Control) or with 0.1 uM STS. After 24 hr, cells were fractionated and analyzed by immunoblotting as above. […] After 3 h at 30° C., mitochondria were centrifuged and the resulting pellets (P) and supernatants (S) were analyzed by immunoblotting using anti-Cytochrome c (top), Hsp60 (middle), and Bax (bottom) antibodies. […]
These findings were also confirmed by subcellular fractionation, where cytosol and mitochondria-enriched heavy membrane preparations were prepared from Cos7 cells transduced with untagged Humanin or Humanin(C8P) peptides, and the relative amounts of endogenous Bax protein in these two fractions were measured by immunoblot analysis of samples normalized for cell-equivalents. […] Differences in the relative potency of Humanin at blocking Bax translocation as measured by microscopy (FIG. 7A) versus cell fractionation methods (FIG. 7C) can be explained by differences in the sensitivity of the assays, or could possibly indicate that even in cells where some Bax translocation has occurred, less of the total Bax protein associated with mitochondria. […]

SF268 cells = assay: STS-induced apoptosis in siRNA-transfected SF268 cells; conditions: 0.1 μM STS 8 hrs
Procedure: (§1) (A-D) CMS14.1 neuronal cells were transfected with plasmids encoding Flag-HN peptide or Flag-control (27-amino-acid) peptide, together with GFP-encoding plasmid at 4:1 ratio. Cells were either cultured without further treatment (open bars) or subjected to various apoptotic stimuli for various times (dark bars), including (A) STS for 8 h (dark symbols=Flag-control; open symbols=Flag-HN), (B) Serum-deprivation for 72 h, (C) 10 joules/m2 Uvirradiation followed by 24 h culture, and (D) 50 ng/ml TNFa in […] for 24 h. Cells were then fixed and stained with DAPI to determine the percentage of apoptotic cells, evaluating=200 GFP-positive cells per sample (mean±SD; n=3). (inset) Lysates prepared from replicate cultures of transfected cells were normalized for total protein content and analyzed by immunoblotting using anti-Flag (top) and anti-tubulin (bottom) antibodies, confirming production of similar amounts of Flag-control and Flag-HN peptides. […] (Upper panel) After 72 hr, cell lysates were prepared and 100 ug was analyzed by immunoblotting using anti-HN and anti-tubulin (as a loading control) antibodies. (Lower panel) At 72 hr after siRNA transfection, SF268 cells were cultured with 0.1 μM STS for 8 hrs, then % apoptosis was determined (mean+std dev; n=3). […] Apoptosis (%) was measured 48 hrs later among GFP-positive cells. […]

endogenous Humanin = assay: siRNA knock-down of endogenous Humanin in SF268 cells (immunoblotting)
Procedure: as §1

Substance: Humanin siRNA: double-strand siRNA, sense r(CCAGUGAAAUUGACCUGCC)d(TT), SEQ ID NO:25/26 (sense CCAGUGAAAUUGACCUGCCNN; antisense GGCAGGUCAAUUUCACUGGNN; sugars from the 5' end r19 d2, backbone and the base at N not given here)
- STS-induced translocation of Bax to membranes (endogenous Bax protein): enhanced
- sensitivity to STS-induced apoptosis (SF268 cells): increased
- endogenous levels of Humanin peptide (endogenous Humanin): reduced
